Values joined by “and” are separate entries in the source; they are usually repeats but may differ in a detail not shown here. Equal entries are not always repeated.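 These data come from cells grown in 96-well plates and exposed to compound for 48 hours at five concentrations. GI50 marks 50% less growth.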 Active and inactive are the calls of the source. Cut-off read from the data, not from the text of the source: active = GI50 up to about 1.1 µM and inactive = higher.
Key:
Assay in all cases: NCI-60 cell line screen, 48 h
EKVX = test system: EKVX
OVCAR-5 = test system: OVCAR-5
NCI-H522 = test system: NCI-H522
NCI/ADR-RES = test system: NCI/ADR-RES
A549 = test system: A549
PC-3 = test system: PC-3
MDA-MB-231 = test system: MDA-MB-231
Malme-3M = test system: Malme-3M
NCI-H226 = test system: NCI-H226
CCRF-CEM = test system: CCRF-CEM
SK-OV-3 = test system: SK-OV-3
OVCAR-3 = test system: OVCAR-3
SK-MEL-5 = test system: SK-MEL-5
SF-268 = test system: SF-268
HT-29 = test system: HT-29
CAKI-1 = test system: CAKI-1
SF-539 = test system: SF-539
A498 = test system: A498
KM12 = test system: KM12
DU-145 = test system: DU-145
HCC 2998 = test system: HCC 2998
SK-MEL-28 = test system: SK-MEL-28
OVCAR-4 = test system: OVCAR-4
SK-MEL-2 = test system: SK-MEL-2
786-0 = test system: 786-0
OVCAR-8 = test system: OVCAR-8
SW-620 = test system: SW-620
HOP-62 = test system: HOP-62
ACHN = test system: ACHN
COLO 205 = test system: COLO 205
MDA-N = test system: MDA-N
SN12C = test system: SN12C
K562 = test system: K562
HCT-15 = test system: HCT-15
MOLT-4 = test system: MOLT-4
M14 = test system: M14
NCI-H460 = test system: NCI-H460
MCF7 = test system: MCF7
SR = test system: SR
Hs-578T = test system: Hs-578T
U-251 = test system: U-251
HCT-116 = test system: HCT-116
SF-295 = test system: SF-295
LOX IMVI = test system: LOX IMVI
T47D = test system: T47D
IGROV-1 = test system: IGROV-1
MDA-MB-435 = test system: MDA-MB-435
RXF 393 = test system: RXF 393
SNB-19 = test system: SNB-19
SNB-75 = test system: SNB-75
UO-31 = test system: UO-31
BT-549 = test system: BT-549
UACC-62 = test system: UACC-62
UACC-257 = test system: UACC-257
TK-10 = test system: TK-10
RPMI-8226 = test system: RPMI-8226
NCI-H23 = test system: NCI-H23
HOP-92 = test system: HOP-92
HL-60 = test system: HL-60

Measured: GI50

CSc1cc(Cl)c(C)cc1S(=O)(=O)NC(=O)NNc1cccc(C(F)(F)F)n1
inactive: EKVX > 100 µM | OVCAR-5 > 100 µM | NCI-H522 > 100 µM | NCI/ADR-RES > 100 µM | A549 > 100 µM | PC-3 > 100 µM | MDA-MB-231 > 100 µM | Malme-3M > 100 µM | NCI-H226 > 100 µM | CCRF-CEM > 100 µM | SK-OV-3 > 100 µM | OVCAR-3 > 100 µM | SK-MEL-5 > 100 µM | SF-268 > 100 µM | HT-29 > 100 µM | CAKI-1 > 100 µM | SF-539 51.8 µM | A498 > 100 µM | KM12 > 100 µM | DU-145 > 100 µM | HCC 2998 > 100 µM | SK-MEL-28 > 100 µM | OVCAR-4 > 100 µM | SK-MEL-2 > 100 µM | 786-0 > 100 µM | OVCAR-8 > 100 µM | SW-620 > 100 µM | HOP-62 > 100 µM | ACHN > 100 µM | COLO 205 > 100 µM | MDA-N > 100 µM | SN12C > 100 µM | K562 > 100 µM | MOLT-4 20.9 µM | M14 > 100 µM | NCI-H460 > 100 µM | MCF7 > 100 µM | SR > 100 µM | Hs-578T > 100 µM | U-251 > 100 µM | HCT-116 > 100 µM | SF-295 > 100 µM | LOX IMVI > 100 µM | T47D > 100 µM | IGROV-1 > 100 µM | MDA-MB-435 > 100 µM | RXF 393 > 100 µM | SNB-19 > 100 µM | SNB-75 91.8 µM
> 100 µM: HCT-15

O=C(OCC(OC(=O)c1ccccc1)C1CC(C2(O)CCCCC2)C(=O)O1)c1ccccc1 (centres undefined)
active: UO-31 0.0181 µM | BT-549 0.478 µM | UACC-62 46.2 nM | NCI-H23 0.05 µM
inactive: EKVX > 25 µM | OVCAR-5 > 25 µM | NCI-H522 > 25 µM | NCI/ADR-RES > 25 µM | A549 > 25 µM | PC-3 > 25 µM | MDA-MB-231 > 25 µM | Malme-3M > 25 µM | NCI-H226 > 25 µM | CCRF-CEM 13.4 µM | SK-OV-3 > 25 µM | OVCAR-3 > 25 µM | SK-MEL-5 > 25 µM | SF-268 > 25 µM | HT-29 14 µM | CAKI-1 > 25 µM | SF-539 > 25 µM | UACC-257 > 25 µM | A498 > 25 µM | KM12 11 µM | DU-145 > 25 µM | HCC 2998 > 25 µM | TK-10 > 25 µM | SK-MEL-28 > 25 µM | RPMI-8226 > 25 µM | OVCAR-4 > 25 µM | SK-MEL-2 > 25 µM | 786-0 > 25 µM | OVCAR-8 > 25 µM | SW-620 > 25 µM | HOP-62 > 25 µM | ACHN > 25 µM | COLO 205 > 25 µM | MDA-N > 25 µM | SN12C > 25 µM | K562 15.9 µM | MOLT-4 6.64 µM | M14 > 25 µM | NCI-H460 9.18 µM | MCF7 21 µM | SR 7.59 µM | U-251 > 25 µM | HCT-116 > 25 µM | SF-295 > 25 µM | LOX IMVI > 25 µM | IGROV-1 > 25 µM | MDA-MB-435 > 25 µM | RXF 393 > 25 µM | SNB-19 > 25 µM | SNB-75 15.7 µM
> 25 µM: HCT-15

O=S1(=O)OCCOS(=O)(=O)C1S(=O)(=O)c1cccc2ccccc12
inactive: EKVX > 100 µM | OVCAR-5 > 100 µM | NCI/ADR-RES > 100 µM | UO-31 > 100 µM | BT-549 > 100 µM | A549 > 100 µM | PC-3 42.3 µM | MDA-MB-231 > 100 µM | Malme-3M > 100 µM | CCRF-CEM > 100 µM | OVCAR-3 > 100 µM | SK-MEL-5 > 100 µM | HT-29 52.7 µM | CAKI-1 > 100 µM | UACC-257 > 100 µM | KM12 > 100 µM | DU-145 > 100 µM | HCC 2998 > 100 µM | TK-10 > 10 µM | SK-MEL-28 > 100 µM | RPMI-8226 > 100 µM | OVCAR-4 > 100 µM | SK-MEL-2 > 100 µM | 786-0 99.5 µM | OVCAR-8 > 100 µM | SW-620 70.5 µM | HOP-62 > 100 µM | ACHN > 100 µM | COLO 205 > 100 µM | MDA-N > 100 µM | SN12C > 100 µM | K562 41.4 µM | MOLT-4 > 100 µM | M14 > 100 µM | NCI-H460 54.6 µM | MCF7 > 100 µM | SR > 100 µM | U-251 > 100 µM | HCT-116 24 µM | HOP-92 > 100 µM | SF-295 > 100 µM | LOX IMVI 46.7 µM | IGROV-1 > 100 µM | MDA-MB-435 > 100 µM | SNB-19 > 10 µM | NCI-H23 > 100 µM | HL-60 68.5 µM
> 100 µM: HCT-15

COc1cc(C(=O)N2CCN(C(=O)c3cc(OC)c(OC)c(OC)c3)C2=S)cc(OC)c1OC
active: UO-31 0.234 µM
inactive: RPMI-8226 3.66 µM

N#Cc1c2c(c(-c3cccs3)n(C3OC(CO)C(O)C(O)C3O)c1=S)CCc1ccccc1-2 (centres undefined)
7.03 µM and 6.32 µM: HCT-15
inactive: EKVX > 24.9 µM | OVCAR-5 > 100 µM | UO-31 3.04 µM | BT-549 > 100 µM | PC-3 46.3 µM and 28.4 µM | Malme-3M 66.2 µM and 35.6 µM | UACC-62 5.64 µM and 7.8 µM | NCI-H226 > 100 µM | CCRF-CEM > 57.8 µM and 36.8 µM | SK-OV-3 7.67 µM and 7.45 µM | OVCAR-3 20.8 µM and 22.5 µM | CAKI-1 6.65 µM and 6.14 µM | UACC-257 > 43.8 µM and > 51.2 µM | KM12 > 45.6 µM and 38.2 µM | DU-145 > 100 µM | HCC 2998 59.8 µM and > 41.5 µM | TK-10 > 29 µM and > 20.8 µM | SK-MEL-28 > 100 µM | OVCAR-4 29.8 µM and > 39 µM | SK-MEL-2 > 100 µM and > 56.8 µM | OVCAR-8 97.5 µM and > 87.7 µM | SW-620 > 100 µM | COLO 205 30 µM and 40 µM | MDA-N 6.4 µM and 4.23 µM | SN12C > 26.7 µM and > 21.7 µM | K562 6.58 µM and 4.93 µM | MOLT-4 8.32 µM and 14.3 µM | MCF7 5.42 µM and 3.85 µM | SR 5.82 µM and 4.76 µM | Hs-578T 8.97 µM and 5.97 µM | U-251 37.2 µM and 21.4 µM | SF-295 27.6 µM and 48.6 µM | LOX IMVI > 22.3 µM and > 22.2 µM | IGROV-1 97.9 µM and > 86.3 µM | MDA-MB-435 3.36 µM and 3.44 µM | RXF 393 24.3 µM and 23 µM | SNB-19 > 100 µM and 98.2 µM | HL-60 > 20.9 µM
